Patent US12065445B2, “CDK2 inhibitors and methods of using the same” (Cedilla Therapeutics, Inc., priority 2021, dated 2024)

What was measured:
[1] = tested on: Kuramochi cells labeled with mApple-H2B; assay: IncuCyte Cell Proliferation Assay; assay type: cell-based; conditions: 72 h
Procedure: IncuCyte® assay was used to measure the effect of disclosed compounds on cell proliferation. Fluorescent microscopy images of cells were taken immediately after compound treatment and 72 hours later. Image analysis software was used to obtain cell counts as a function of compound concentration. Kuramochi cells labeled with mApple-H2B were seeded on 384-well assay-ready plates. Plates were placed in an IncuCyte® (Sartorius) and scanned at 0 and 72 hours. IncuCyte® software was used to count the number of fluorescent nuclei in each well. The fold change in cell count from 0 to 72 hours in wells treated with increasing compounds concentrations (10 pts, ½ log dilution, 20 μM top concentration) was normalized to DMSO control wells. The normalized cell counts were fit with dose response curves and a […] was calculated.

[2] = tested on: Kuramochi cells; assay: BrdU Cell Proliferation Assay; assay type: cell-based; conditions: read-out: BrdU - KURAMOCHI.1: IC50
Method in brief: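 Signal is 450 nm absorbance from a peroxidase anti-BrdU ELISA after a 1-hour BrdU label, background-subtracted and normalized to DMSO-treated wells. Kuramochi cells (2,000 per well) had been exposed to compound for 4 days. Dosing used a 10-point dose response in 3-fold steps.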

CNC(=O)[C@@H](NC(=O)[C@@H]1CN(C(=O)c2cncs2)CC12CN(Cc1ccn[nH]1)C2)[C@@H](C)OCC12CCC(CC1)OC2 [I-351]
IC50 [1]: > 20 µM

Cc1ccc(CNC(=O)[C@@H]2CN(C(=O)c3cnn(Cc4ccncc4)c3)CC23CN(C(=O)[C@H]2CC2(C)C)C3)nn1 [I-418]
IC50 [1]: > 20 µM

CNC(=O)C(NC(=O)[C@@H]1CN(C(=O)c2cncs2)CC12CN(C(=O)C(C)(C)C1CC1)C2)c1cccc(C2CCCCC2)n1 (stereo partly drawn) [I-410, (8S)—N-(1-(6-cyclohexylpyridin-2-yl)-2-(methylamino)-2-oxoethyl)-2-(2-cyclopropyl-2-methylpropanoyl)-6-(thiazole-5-carbonyl)-2,6-diazaspiro[3.4]octane-8-carboxamide]
IC50 [1]: 0.5 to 5 µM

COC[C@H]1CCCN(C(=O)[C@@H](NC(=O)[C@@H]2CN(C(=O)c3cncs3)CC23CN(C(=O)[C@H]2CC2(C)C)C3)[C@@H](C)OC[C@H]2CC[C@H](N)CC2)C1 [I-433]
IC50 [1]: > 20 µM

C[C@@H](OCC1CCCCC1)[C@H](NC(=O)[C@@H]1CN(C(=O)c2cnn(Cc3ccccc3)c2)CC12CN(C(=O)[C@H]1CC1(C)C)C2)C(=O)N1CCC(c2nccs2)CC1 [I-445]
IC50 [1]: ≤ 0.5 µM

C[C@@H](OCC1CCCCC1)[C@H](NC(=O)[C@@H]1CN(C(=O)c2cnn(Cc3ccccc3)c2)CC12CN(C(=O)[C@H]1CC1(C)C)C2)C(=O)NCCC(=O)OC(C)(C)C [I-478]
IC50 [1]: ≤ 0.5 µM

CNC(=O)C(NC(=O)[C@@H]1CN(C(=O)c2cnn(Cc3ccccc3)c2)CC12CN(C(=O)[C@H]1CC1(C)C)C2)c1cccc(C2CCCCC2)n1 (stereo partly drawn) [I-391]
IC50 [1]: 0.5 to 5 µM

CNC(=O)[C@@H](NC(=O)[C@@H]1CN(C(=O)c2cnn(Cc3ccc(C(=O)O)cc3)c2)CC12CN(C(=O)[C@H]1CC1(C)C)C2)[C@@H](C)OCc1ccccc1 [I-476]
IC50 [1]: > 20 µM

C[C@@H](OCC1CCC(F)(F)CC1)[C@H](NC(=O)C1CN(C(=O)c2cncs2)CC12CN(C(=O)[C@H]1CC1(C)C)C2)C(=O)N1CCC(OC(F)(F)F)CC1 (stereo partly drawn) [I-394]
IC50 [1]: ≤ 0.5 µM

CN(C)C(=O)C(NC(=O)[C@@H]1CN(C(=O)c2cncs2)CC12CN(C(=O)C(C)(C)C1CC1)C2)c1cccc(C2CCOCC2)n1 (stereo partly drawn) [I-340]
IC50 [1]: > 20 µM

C[C@@H](OCC12CCC(CC1)OC2)[C@H](NC(=O)[C@@H]1CN(C(=O)c2cnco2)CC12CN(C(=O)C(C)(C)C1CC1)C2)C(C)(C)O [I-448]
IC50 [1]: > 20 µM

Cc1nc(C)c(C(=O)N2C[C@@H](C(=O)N[C@H](C(=O)N3CCC(OC(F)(F)F)CC3)[C@@H](C)OCC34CCC(CC3)OC4)C3(C2)CN(C(=O)[C@H]2CC2(C)C)C3)s1 [I-455]
IC50 [1]: 0.5 to 5 µM

C[C@@H](OCC1CCC(F)(F)CC1)[C@H](NC(=O)[C@@H]1CN(C(=O)c2cncs2)CC12CN(C(=O)[C@H]1CC1(C)C)C2)C(=O)N1CCC2(CC1)COC2 [I-335]
IC50 [1]: 0.5 to 5 µM

C[C@@H](OCC1CCOCC1)[C@@H](COC1CCC(F)(F)CC1)NC(=O)[C@@H]1CN(C(=O)c2cncs2)CC12CN(C(=O)[C@H]1CC1(C)C)C2 [I-312]
IC50 [1]: 0.5 to 5 µM

CC1(C)C[C@@H]1C(=O)N1CC2(CN(C(=O)c3cncs3)C[C@H]2C(=O)NC(c2cccc(C3CCCCC3)n2)C2CCOC2)C1 (stereo partly drawn) [I-493]
IC50 [1]: 5 to 20 µM

COC[C@H]1CCCN(C(=O)[C@@H](NC(=O)[C@@H]2CN(C(=O)c3cncs3)CC23CN(C(=O)[C@H]2CC2(C)C)C3)[C@@H](C)OC[C@H]2CC[C@H](NC(C)=O)CC2)C1 [I-434]
IC50 [1]: > 20 µM

C[C@@H](OCc1ccc(C(F)(F)F)cc1)[C@H](NC(=O)[C@@H]1CN(C(=O)c2cncs2)CC12CN(C(=O)[C@H]1CC1(C)C)C2)C(=O)N1C2CCC1COC2 [I-470]
IC50 [1]: 0.5 to 5 µM

C[C@@H](OCC1CCCCC1)[C@H](NC(=O)[C@@H]1CN(C(=O)c2cnn(Cc3ccccc3)c2)CC12CN(C(=O)[C@H]1CC1(C)C)C2)C(=O)N1CCC(c2ccncc2)CC1 [I-300]
IC50 [1]: ≤ 0.5 µM

CNC(=O)[C@@H](NC(=O)[C@H]1CN(C(=O)c2cnc(COC)s2)CC12CN(C(=O)[C@H]1CC1(C)C)C2)[C@@H](C)OCC1CCCCC1 [I-145B]
IC50 [2]: > 10 µM

CNC(=O)[C@@H](NC(=O)[C@H]1CN(C(=O)c2cnn(Cc3ccccc3)c2)CC12CN(C(=O)C1C(C)(C)C1(C)C)C2)[C@@H](C)OCc1ccccc1 [I-89B]
IC50 [2]: > 10 µM

CNC(=O)[C@@H](NC(=O)[C@H]1CN(C(=O)c2cnn(Cc3ccccc3)c2)CC12CN(C(=O)Cc1ccccc1)C2)[C@@H](C)OCc1ccccc1 [I-25B]
IC50 [2]: > 10 µM

CNC(=O)[C@@H](NC(=O)C1CN(C(=O)c2cnn(Cc3cccnc3)c2)CC12CN(C(=O)C1CC1(C)C)C2)[C@@H](C)OCc1ccccc1 (stereo partly drawn) [I-15]
IC50 [2]: > 10 µM

CO[C@H]1COCC[C@@H]1NC(=O)[C@H]1CN(C(=O)c2cnn(Cc3ccccc3)c2)CC12CN(C(=O)[C@H]1CC1(C)C)C2 [I-131B]
IC50 [2]: > 10 µM

CNC(=O)[C@H](CS(=O)(=O)Cc1ccccc1)NC(=O)[C@@H]1CN(C(=O)c2cnn(Cc3ccccc3)c2)CC12CN(C(=O)[C@H]1CC1(C)C)C2 [I-226]
IC50 [2]: > 10 µM

C[C@@H](OCC1CCCCC1)[C@H](NC(=O)[C@@H]1CN(C(=O)c2cnn(Cc3ccccc3)c2)CC12CN(C(=O)[C@H]1CC1(C)C)C2)C(=O)N1CCC[C@@H]1CN [I-238]
IC50 [2]: > 10 µM

CC1(C)C[C@@H]1C(=O)N1CC2(CN(C(=O)c3cnn(Cc4ccccc4)c3)C[C@@H]2C(=O)Nc2ccc(Cc3ccccc3)nc2)C1 [I-168]
IC50 [2]: > 10 µM

COC(=O)C1(NC(=O)[C@H]2CN(C(=O)c3cnn(Cc4ccccc4)c3)CC23CN(C(=O)[C@H]2CC2(C)C)C3)COC1 [I-142A]
IC50 [2]: > 10 µM

CNC(=O)[C@@H](NC(=O)[C@H]1CN(Cc2ccccn2)CC12CN(C(=O)[C@H]1CC1(C)C)C2)[C@@H](C)OCc1ccccc1 [I-40B]
IC50 [2]: > 10 µM

CNC(=O)[C@H](COCc1ccccc1)NC(=O)[C@@H]1CN(C(=O)c2cnn(Cc3ccccc3)c2)CC12CN(C(=O)C(C)(C)C)C2 [I-100A]
IC50 [2]: > 10 µM

CNC(=O)[C@@H](NC(=O)[C@@H]1CN(C(=O)c2cnn(Cc3ccccc3)c2)CC12CN(C(=O)[C@H]1CC1(C)C)C2)C(C)(C)S(=O)(=O)Cc1ccccc1 [I-199, (S)-6-(1-benzyl-1H-pyrazole-4-carbonyl)-N—((R)-3-(benzylsulfonyl)-3-methyl-1-(methylamino)-1-oxobutan-2-yl)-2-((S)-2,2-dimethylcyclopropane-1-carbonyl)-2,6-diazaspiro[3.4]octane-8-carboxamide]
IC50 [2]: > 10 µM

CNC(=O)[C@@H](NC(=O)[C@@H]1CN(C(=O)c2cnn(Cc3ccccc3)c2)CC12CN(C(=O)C1(C3CC3)CC1)C2)[C@@H](C)OCc1ccccc1 [I-114A]
IC50 [2]: > 10 µM

CNC(=O)[C@@H](NC(=O)[C@@H]1CN(C(=O)c2cnn(CC3CCOCC3)c2)CC12CN(C(=O)[C@H]1CC1(C)C)C2)[C@@H](C)OCc1ccccc1 [I-95A]
IC50 [2]: > 10 µM

CC1(C)C[C@@H]1C(=O)N1CC2(CN(C(=O)c3cnn(Cc4ccccc4)c3)C[C@@H]2C(=O)Nc2ccc(Cc3ccccc3)cc2)C1 [I-84B]
IC50 [2]: 5 to 10 µM

CNC(=O)[C@@H](NC(=O)[C@H]1CN(C(=O)c2cnn(CC3CCN(C)CC3)c2)CC12CN(C(=O)[C@H]1CC1(C)C)C2)[C@@H](C)OCc1ccccc1 [I-23B]
IC50 [2]: > 10 µM

CCCC(=O)N1CC2(C1)CN(C(=O)c1cnn(Cc3ccccc3)c1)C[C@H]2C(=O)N[C@H](C(=O)NC)[C@@H](C)OCc1ccccc1 [I-60A]
IC50 [2]: > 10 µM

CNC(=O)[C@@H](NC(=O)[C@H]1CN(C(=O)c2cnco2)CC12CN(C(=O)[C@H]1CC1(C)C)C2)[C@@H](C)OCc1ccccc1 [I-39B]
IC50 [2]: > 10 µM

CNC(=O)[C@@H](NC(=O)[C@H]1CN(C(=O)c2sc(C(C)C)nc2C)CC12CN(C(=O)[C@H]1CC1(C)C)C2)[C@@H](C)OCC1CCCCC1 [I-227B]
IC50 [2]: > 10 µM

CNC(=O)[C@@H](NC(=O)[C@H]1CN(C(=O)c2cccnc2)CC12CN(C(=O)[C@H]1CC1(C)C)C2)[C@@H](C)OCc1ccccc1 [I-42B]
IC50 [2]: > 10 µM

CCC(CC)C(=O)N1CC2(CN(C(=O)c3cnn(Cc4ccccc4)c3)C[C@H]2C(=O)N[C@H](C(=O)NC)[C@@H](C)OCc2ccccc2)C1 [I-74A]
IC50 [2]: > 10 µM

C[C@@H](OCc1ccccc1)[C@H](NC(=O)C1CN(C(=O)c2cnn(Cc3ccccc3)c2)CC12CN(C(=O)[C@H]1CC1(C)C)C2)C(=O)NCCC(=O)O (stereo partly drawn) [I-29]
IC50 [2]: > 10 µM

CC1(C)C[C@@H]1C(=O)N1CC2(CN(C(=O)c3cnn(Cc4ccccc4)c3)C[C@H]2C(=O)N[C@H]2CCN(c3ccccc3)C2)C1 [I-206]
IC50 [2]: > 10 µM

CNC(=O)[C@@H](NC(=O)[C@H]1CN(C(=O)c2cnn(Cc3ccccc3)c2)CC12CN(C(=O)C(C)(C)C)C2)[C@@H](C)OCc1ccccc1 [I-65B]
IC50 [2]: > 10 µM

COCCNC(=O)[C@@H]1CN(C(=O)c2cnn(Cc3ccccc3)c2)CC12CN(C(=O)[C@H]1CC1(C)C)C2 [I-122A]
IC50 [2]: > 10 µM

CC1(C)C[C@@H]1C(=O)N1CC2(CN(C(=O)c3cnn(Cc4ccccc4)c3)C[C@@H]2C(=O)N2CCC(Cc3ccccc3)CC2)C1 [I-58B]
IC50 [2]: > 10 µM

CNC(=O)[C@@H](NC(=O)C1CN(C(=O)c2cnn(Cc3ccccc3)c2)CC12CN(C(=O)C1CC1(C)C)C2)[C@@H](C)OCC1CCCCC1 (mixture of isomers) [I-12]
IC50 [2]: 0.5 to 5 µM

CNC(=O)[C@@H](NC(=O)[C@H]1CN(C(=O)Nc2cnn(Cc3ccccc3)c2)CC12CN(C(=O)[C@H]1CC1(C)C)C2)[C@@H](C)OCc1ccccc1 [I-48B]
IC50 [2]: > 10 µM

CNC(=O)[C@@H](NC(=O)[C@@H]1CN(C(=O)c2cncs2)CC12CN(C(=O)CC1CC1)C2)[C@@H](C)OCC1CCCCC1 [I-103A]
IC50 [2]: > 10 µM

CNC(=O)[C@@H](NC(=O)[C@H]1CN(Cc2cn[nH]c2)CC12CN(C(=O)[C@H]1CC1(C)C)C2)[C@@H](C)OCc1ccccc1 [I-50B]
IC50 [2]: > 10 µM
